# Results from ChEMBL document CHEMBL2385028, “Augmentation of GABAergic neurotransmission by novel N-(substituted)-2-[4-(substituted)benzylidene]hydrazinecarbothioamides-a potential anticonvulsant approach” (Eur J Med Chem, 2013).
# Activity calls are given as the source filed them. No cut-off for these calls is given here.
# Columns and labels:
# physchem = settings: octanol/phosphate buffer
# Description: Octanol-phosphate buffer partition coefficient, log P of the compound after 24 hrs by UV spectroscopic analysis
# Mus musculus [1] = test: Anticonvulsant activity in albino CF-1 mouse assessed as protection against 6 Hz psychomotor seizure at 100 mg/kg, ip after 2 hrs by minimal clonic seizure test relative to control; format: functional; settings: route intraperitoneal
# Mus musculus [2] = test: Anticonvulsant activity in albino CF-1 mouse assessed as protection against 6 Hz psychomotor seizure at 100 mg/kg, ip after […] by minimal clonic seizure test relative to control
# Description: Anticonvulsant activity in albino CF-1 mouse assessed as protection against 6 Hz psychomotor seizure at 100 mg/kg, ip after 0.25 hrs by minimal clonic seizure test relative to control
# Mus musculus [3] = test: Anticonvulsant activity in albino CF-1 mouse assessed as protection against subcutaneous metrazole-induced seizures in half or more animals at 300 mg/kg, ip after 0.5 hrs; format: functional, organism-based; set-up: dose 300 mg/kg
# Mus musculus [4] = test: Anticonvulsant activity in ip dosed albino CF-1 mouse assessed as protection against maximal electroshock-induced seizures in half or more animals after 4 hrs; format: functional; settings: albino CF-1, ip, read-out: MED
# Mus musculus [5] = test: Anticonvulsant activity in albino CF-1 mouse assessed as protection against subcutaneous metrazole-induced seizures in half or more animals at 300 mg/kg, ip after 4 hrs; format: functional, organism-based; set-up: dose 300 mg/kg
# Mus musculus [6] = test: Anticonvulsant activity in ip dosed albino CF-1 mouse assessed as protection against maximal electroshock-induced seizures in half or more animals after 2 hrs; format: functional; settings: albino CF-1, ip, read-out: MED
# Mus musculus [7] = test: Anticonvulsant activity in ip dosed albino CF-1 mouse assessed as protection against maximal electroshock-induced seizures in half or more animals after 0.5 hrs; format: functional; settings: albino CF-1, ip, read-out: MED
# Mus musculus [8] = test: Anticonvulsant activity in albino CF-1 mouse assessed as protection against 6 Hz psychomotor seizure at 100 mg/kg, ip after 0.5 hrs by minimal clonic seizure test relative to control; format: functional; settings: route intraperitoneal
# [9] = Inhibition of voltage-dependent calcium channel subunit alpha-2/delta gabapentin binding site (unknown origin); set-up: species or system Homo sapiens
# Mus musculus [10] = test: Anticonvulsant activity in albino CF-1 mouse at 300 mg/kg, ip assessed as protection against maximal electroshock-induced seizures in half or more animals after 4 hrs; format: functional, organism-based; set-up: dose 300 mg/kg
# Mus musculus [11] = test: Anticonvulsant activity in albino CF-1 mouse at 300 mg/kg, ip assessed as protection against maximal electroshock-induced seizures in half or more animals after 2 hrs; format: functional, organism-based; set-up: dose 300 mg/kg
# Mus musculus [12] = test: Anticonvulsant activity in albino CF-1 mouse at 300 mg/kg, ip assessed as protection against maximal electroshock-induced seizures in half or more animals after 0.5 hrs; format: functional, organism-based; set-up: dose 300 mg/kg
# Mus musculus [13] = test: Anticonvulsant activity in ip dosed albino CF-1 mouse assessed as protection against subcutaneous metrazole-induced seizures in half or more animals after 0.5 hrs; format: functional; settings: albino CF-1, 0.5 h, read-out: MED
# Rattus norvegicus [14] = test: Neurotoxicity in albino Sprague-Dawley rat assessed as motor impairment up to 600 mg/kg, ip measured for 4 hrs; format: toxicity, organism-based; set-up: dose 600 mg/kg, route intraperitoneal; settings: in vivo
# Rattus norvegicus [15] = test: Effect on GABA levels in Wistar rat olfactory lobe at 30 mg/kg, ip after 2 hrs measured per 100 mg tissue; format: functional; settings: route intraperitoneal
# Rattus norvegicus [16] = test: Effect on GABA levels in Wistar rat cerebellum at 30 mg/kg, ip after 2 hrs measured per 100 mg tissue; format: functional; settings: route intraperitoneal
# [17] = Neuroprotective activity in hippocampal slices (unknown origin) assessed as protection against NMDA-induced cell death by propidium-iodide staining-based fluorescence assay; format: functional, tissue-based; settings: Hippocampus
# Mus musculus [18] = test: Anticonvulsant activity in ip dosed albino CF-1 mouse assessed as protection against 6 Hz psychomotor seizure after 4 hrs by minimal clonic seizure test; format: functional; settings: albino CF-1, ip
# Mus musculus [19] = test: Anticonvulsant activity in albino CF-1 mouse at 300 mg/kg, ip assessed as protection against maximal electroshock-induced seizures in half or more animals after 4 hrs relative to control; format: functional; settings: route intraperitoneal
# Mus musculus [20] = test: Anticonvulsant activity in albino CF-1 mouse assessed as protection against 6 Hz psychomotor seizure at 100 mg/kg, ip after 1 hr by minimal clonic seizure test relative to control; format: functional; settings: route intraperitoneal
# [21] = Neuroprotective activity in hippocampal slices (unknown origin) assessed as protection against kainic acid-induced cell death by propidium-iodide staining-based fluorescence assay; format: functional, tissue-based; settings: Hippocampus
# Rattus norvegicus [22] = test: Anticonvulsant activity in albino Sprague-Dawley rat assessed as protection against pilocarpine-induced status epilepticus at 600 mg/kg, ip administered prior to pilocarpine-challenge; format: functional, organism-based; set-up: dose 600 mg/kg
# Rattus norvegicus [23] = test: Effect on GABA levels in Wistar rat midbrain at 30 mg/kg, ip after 2 hrs measured per 100 mg tissue; format: functional; settings: route intraperitoneal
# Rattus norvegicus [24] = test: Effect on GABA levels in Wistar rat medulla oblongata at 30 mg/kg, ip after 2 hrs measured per 100 mg tissue; format: functional; settings: route intraperitoneal
# Mus musculus [25] = test: Anticonvulsant activity in albino CF-1 mouse at 100 mg/kg, ip assessed as protection against maximal electroshock-induced seizures in half or more animals after 4 hrs relative to control; format: functional; settings: route intraperitoneal
# Mus musculus [26] = test: Anticonvulsant activity in albino CF-1 mouse assessed as protection against 6 Hz psychomotor seizure at 100 mg/kg, ip after 4 hrs by minimal clonic seizure test; format: functional; settings: route intraperitoneal
compound,measurement,setting,value
Fc1ccc(Oc2ccc(/C=N/NC(=S)NC3CCCCC3)cc2)cc1,logP at 24 h,physchem,5.82
same,Activity,Mus musculus [1],50%
same,Activity,Mus musculus [2],inactive
Cc1cc(Oc2ccc(/C=N/NC(=S)Nc3ccccc3)cc2)ccc1Cl,logP at 24 h,physchem,6.03
same,Activity,Mus musculus [2],inactive
Cc1ccc(NC(=S)N/N=C/c2ccc(Oc3ccc([N+](=O)[O-])cc3)cc2)cc1,logP at 24 h,physchem,5.23
O=C1NC(=O)C(c2ccccc2)(c2ccccc2)N1 [PHENYTOIN],Activity,Mus musculus [3],inactive
same,minimal effective dose,Mus musculus [4],30 mg/kg
same,Activity,Mus musculus [5],inactive
same,minimal effective dose,Mus musculus [6],30 mg/kg
same,minimal effective dose,Mus musculus [7],30 mg/kg
Cc1ccc(NC(=S)N/N=C/c2ccc(Oc3ccccc3)cc2)cc1,logP at 24 h,physchem,5.28
same,Activity,Mus musculus [8],50%
same,Activity,Mus musculus [2],inactive
COc1ccc(NC(=S)N/N=C/c2ccc(Oc3ccc([N+](=O)[O-])cc3)cc2)cc1,logP at 24 h,physchem,4.9
COc1ccc(NC(=S)N/N=C/c2ccc(Oc3ccc4ccccc4c3)cc2)cc1,logP at 24 h,physchem,6.11
O=C(O)[C@H]1CNCC12CCCCC2,IC50,[9],120 nM
Cc1ccc(NC(=S)N/N=C/c2ccc(Oc3ccc4ccccc4c3)cc2)cc1,logP at 24 h,physchem,6.56
COc1ccc(NC(=S)N/N=C/c2ccc(Oc3ccc(Br)cc3)cc2)cc1,logP at 24 h,physchem,5.84
S=C(N/N=C/c1ccc(Oc2ccc(Br)cc2)cc1)Nc1ccccc1,logP at 24 h,physchem,5.62
same,Activity,Mus musculus [2],inactive
S=C(N/N=C/c1ccc(Oc2ccc3c(c2)OCO3)cc1)Nc1ccccc1,logP at 24 h,physchem,4.8
O=[N+]([O-])c1ccc(Oc2ccc(/C=N/NC(=S)Nc3ccccc3)cc2)cc1,logP at 24 h,physchem,4.95
CCCC(CCC)C(=O)[O-].[Na+] [VALPROATE SODIUM],Activity,Mus musculus [10],inactive
same,Activity,Mus musculus [11],inactive
same,Activity,Mus musculus [12],inactive
same,Activity,Mus musculus [5],inactive
same,minimal effective dose,Mus musculus [13],300 mg/kg
COc1ccc(NC(=S)N/N=C/c2ccc(Oc3ccc(Cl)cc3)cc2)cc1,logP at 24 h,physchem,5.68
O=[N+]([O-])c1ccc(Oc2ccc(/C=N/NC(=S)NC3CCCCC3)cc2)cc1,logP at 24 h,physchem,5.51
S=C(N/N=C/c1ccc(Oc2ccc3ccccc3c2)cc1)Nc1ccccc1,logP at 24 h,physchem,6.07
S=C(N/N=C/c1ccc(Oc2ccc3ccccc3c2)cc1)NC1CCCCC1,logP at 24 h,physchem,6.79
S=C(N/N=C/c1ccc(Oc2ccc(Cl)cc2)cc1)Nc1ccccc1,logP at 24 h,physchem,5.52
S=C(N/N=C/c1ccc(Oc2ccccc2)cc1)NC1CCCCC1,logP at 24 h,physchem,5.7
COc1ccc(NC(=S)N/N=C/c2ccc(Oc3ccc(C)cc3)cc2)cc1,Activity,Rattus norvegicus [14],Non-toxic
same,Activity,Mus musculus [3],inactive
same,logP at 24 h,physchem,5.44
same,Activity,Mus musculus [11],inactive
same,Activity,Rattus norvegicus [15],15.84 mg
same,Activity,Rattus norvegicus [16],27.02 mg
same,minimal effective dose,Mus musculus [4],300 mg/kg
same,Activity,[17],inactive
same,Activity,Mus musculus [12],inactive
same,Activity,Mus musculus [5],inactive
same,ED50,Mus musculus [18],> 100 mg/kg
same,Activity,Mus musculus [19],100%
same,Activity,Mus musculus [20],100%
same,Activity,[21],inactive
same,Activity,Rattus norvegicus [22],inactive
same,Activity,Mus musculus [1],50%
same,Activity,Rattus norvegicus [23],58.09 mg
same,Activity,Rattus norvegicus [24],50.08 mg
S=C(N/N=C/c1ccc(Oc2ccc(Cl)cc2)cc1)NC1CCCCC1,Activity,Rattus norvegicus [14],Non-toxic
same,Activity,Mus musculus [3],inactive
same,logP at 24 h,physchem,6.44
same,Activity,Mus musculus [11],inactive
same,Activity,Rattus norvegicus [15],14.81 mg
same,Activity,Rattus norvegicus [16],24.43 mg
same,minimal effective dose,Mus musculus [4],100 mg/kg
same,Activity,[17],inactive
same,Activity,Mus musculus [25],100%
same,Activity,Mus musculus [12],inactive
same,Activity,Mus musculus [5],inactive
same,ED50,Mus musculus [18],> 100 mg/kg
same,Activity,Mus musculus [20],75%
same,Activity,[21],inactive
same,Activity,Rattus norvegicus [22],inactive
same,Activity,Mus musculus [8],75%
same,Activity,Rattus norvegicus [23],51.76 mg
same,Activity,Rattus norvegicus [24],47.24 mg
same,Activity,Mus musculus [2],inactive
Cc1ccc(NC(=S)N/N=C/c2ccc(Oc3ccc(Cl)cc3)cc2)cc1,logP at 24 h,physchem,6.71
COc1ccc(NC(=S)N/N=C/c2ccc(Oc3ccccc3)cc2)cc1,Activity,Rattus norvegicus [14],Non-toxic
same,logP at 24 h,physchem,4.99
same,Activity,[17],inactive
same,Activity,Mus musculus [20],75%
same,Activity,[21],inactive
same,Activity,Rattus norvegicus [22],inactive
same,Activity,Mus musculus [8],50%
Cc1ccc(Oc2ccc(/C=N/NC(=S)Nc3ccccc3)cc2)cc1,logP at 24 h,physchem,5.39
S=C(N/N=C/c1ccc(Oc2ccc3c(c2)OCO3)cc1)NC1CCCCC1,logP at 24 h,physchem,5.56
S=C(N/N=C/c1ccc(Oc2ccccc2)cc1)Nc1ccccc1,logP at 24 h,physchem,4.9
Cc1ccc(Oc2ccc(/C=N/NC(=S)NC3CCCCC3)cc2)cc1,logP at 24 h,physchem,6.17
Cc1ccc(NC(=S)N/N=C/c2ccc(Oc3ccc(F)cc3)cc2)cc1,logP at 24 h,physchem,5.48
COc1ccc(NC(=S)N/N=C/c2ccc(Oc3ccc(Cl)c(C)c3)cc2)cc1,logP at 24 h,physchem,6.03
same,Activity,Mus musculus [2],inactive
Cc1ccc(NC(=S)N/N=C/c2ccc(Oc3ccc(Br)cc3)cc2)cc1,logP at 24 h,physchem,6.23
COc1ccc(NC(=S)N/N=C/c2ccc(Oc3ccc4c(c3)OCO4)cc2)cc1,logP at 24 h,physchem,4.9
COc1ccc(NC(=S)N/N=C/c2ccc(Oc3ccc(F)cc3)cc2)cc1,logP at 24 h,physchem,5.09
same,Activity,Mus musculus [26],25%
same,Activity,Mus musculus [2],inactive
Fc1ccc(Oc2ccc(/C=N/NC(=S)Nc3ccccc3)cc2)cc1,logP at 24 h,physchem,5.09
same,Activity,Mus musculus [2],inactive
S=C(N/N=C/c1ccc(Oc2ccc(Br)cc2)cc1)NC1CCCCC1,logP at 24 h,physchem,6.36
same,Activity,Mus musculus [2],inactive
Cc1ccc(NC(=S)N/N=C/c2ccc(Oc3ccc4c(c3)OCO4)cc2)cc1,logP at 24 h,physchem,5.34
Cc1ccc(NC(=S)N/N=C/c2ccc(Oc3ccc(C)cc3)cc2)cc1,logP at 24 h,physchem,5.84
Cc1cc(Oc2ccc(/C=N/NC(=S)NC3CCCCC3)cc2)ccc1Cl,logP at 24 h,physchem,6.76
same,Activity,Mus musculus [20],75%
same,Activity,Mus musculus [2],inactive
